{
  "source": "patent US10227350B2",
  "about": "(Gilead Sciences, Inc., priority 2016, dated 2019)",
  "biological_target": "PI3Kβ (Homo sapiens (Human), UniProt P42338)",
  "sequence (P42338 whole entry, the tested form may be a part)": "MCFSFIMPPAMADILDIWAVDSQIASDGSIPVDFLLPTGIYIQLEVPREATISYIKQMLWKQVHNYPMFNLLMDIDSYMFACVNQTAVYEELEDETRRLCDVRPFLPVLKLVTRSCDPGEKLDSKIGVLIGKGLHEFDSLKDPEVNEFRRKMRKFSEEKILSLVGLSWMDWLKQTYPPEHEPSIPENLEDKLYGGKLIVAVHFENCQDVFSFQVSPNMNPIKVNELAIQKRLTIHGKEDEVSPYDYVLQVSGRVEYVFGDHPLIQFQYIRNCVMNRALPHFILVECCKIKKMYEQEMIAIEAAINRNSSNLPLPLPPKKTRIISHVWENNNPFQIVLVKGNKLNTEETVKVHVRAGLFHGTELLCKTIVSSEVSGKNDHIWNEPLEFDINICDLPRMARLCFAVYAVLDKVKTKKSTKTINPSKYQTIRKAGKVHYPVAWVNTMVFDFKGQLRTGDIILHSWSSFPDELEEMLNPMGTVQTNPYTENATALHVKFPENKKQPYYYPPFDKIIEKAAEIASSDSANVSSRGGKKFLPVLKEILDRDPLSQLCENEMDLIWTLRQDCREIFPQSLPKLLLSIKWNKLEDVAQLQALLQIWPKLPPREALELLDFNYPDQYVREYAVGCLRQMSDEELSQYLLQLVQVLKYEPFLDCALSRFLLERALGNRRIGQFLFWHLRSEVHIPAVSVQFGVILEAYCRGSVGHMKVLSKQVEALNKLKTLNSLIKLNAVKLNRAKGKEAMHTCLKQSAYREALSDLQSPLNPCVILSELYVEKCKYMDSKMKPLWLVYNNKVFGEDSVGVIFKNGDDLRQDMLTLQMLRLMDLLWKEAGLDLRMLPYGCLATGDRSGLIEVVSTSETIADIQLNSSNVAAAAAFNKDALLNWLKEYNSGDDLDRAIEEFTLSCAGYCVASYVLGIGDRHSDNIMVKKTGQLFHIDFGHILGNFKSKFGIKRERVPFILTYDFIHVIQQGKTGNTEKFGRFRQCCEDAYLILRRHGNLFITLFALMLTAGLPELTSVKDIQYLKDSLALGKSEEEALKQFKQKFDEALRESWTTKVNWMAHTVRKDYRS",
  "sequence (P27986 whole entry partner, the tested form may be a part)": "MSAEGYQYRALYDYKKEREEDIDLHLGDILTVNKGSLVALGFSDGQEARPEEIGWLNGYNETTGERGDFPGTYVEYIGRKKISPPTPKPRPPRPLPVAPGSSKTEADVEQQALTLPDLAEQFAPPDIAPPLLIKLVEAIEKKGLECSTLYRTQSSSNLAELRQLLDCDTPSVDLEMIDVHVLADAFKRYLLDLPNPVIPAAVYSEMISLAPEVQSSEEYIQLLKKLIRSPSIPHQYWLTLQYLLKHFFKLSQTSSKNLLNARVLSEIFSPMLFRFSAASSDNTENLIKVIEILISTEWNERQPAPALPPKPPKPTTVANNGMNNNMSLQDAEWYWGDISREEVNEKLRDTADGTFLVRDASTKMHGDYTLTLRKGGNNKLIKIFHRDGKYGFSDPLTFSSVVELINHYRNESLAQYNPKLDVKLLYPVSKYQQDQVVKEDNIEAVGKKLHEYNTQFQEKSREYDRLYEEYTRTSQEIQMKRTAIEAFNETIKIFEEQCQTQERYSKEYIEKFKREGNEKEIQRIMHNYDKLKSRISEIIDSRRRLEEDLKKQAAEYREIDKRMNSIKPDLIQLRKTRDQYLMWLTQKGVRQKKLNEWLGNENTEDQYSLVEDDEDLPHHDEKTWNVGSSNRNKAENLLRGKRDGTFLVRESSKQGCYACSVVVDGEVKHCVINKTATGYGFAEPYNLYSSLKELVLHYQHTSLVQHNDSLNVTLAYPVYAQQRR",
  "experiment": "TR-FRET enzymatic activity assay, PI3Kβ",
  "format": "biochemical",
  "conditions": "2× Km ATP, 2 μM PIP2, 30 minutes at 25° C., read-out: IC50-PIP-Beta",
  "how_it_was_run": "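Purified recombinant heterodimeric PI3Kβ; PIP3 formation read by TR-FRET as competition with fluorescent tracer for GRP-1 PH domain binding. Compounds incubated 30 min at 25 °C.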",
  "data": [
    {"smiles": "CCCc1nc2c(-c3nnc[nH]3)cc(-c3ccnc(N)c3F)cc2n1-c1ccnc2c(F)cccc12", "note": "[Example 87, 3-fluoro-4-[3-(8-fluoroquinolin-4-yl)-2-propyl-7-(4H-1,2,4-triazol-3-yl)benzimidazol-5-yl]pyridin-2-amine]", "values": [
      {"measurement": "IC50", "value": 12, "unit": "nM"}
    ]},
    {"smiles": "Nc1nccc(-c2cc(-c3nnc[nH]3)c3nc(C4CC4)n(-c4ccnc5c(F)cccc45)c3c2)c1F", "note": "[Example 88, 4-[2-cyclopropyl-3-(8-fluoroquinolin-4-yl)-7-(4H-1,2,4-triazol-3-yl)benzimidazol-5-yl]-3-fluoropyridin-2-amine]", "values": [
      {"measurement": "IC50", "value": 110, "unit": "nM"}
    ]},
    {"smiles": "Cc1cnc2c(Cl)cccc2c1-n1c(C)nc2c(-c3nnc[nH]3)cc(-c3ccnc(N)c3F)cc21", "note": "[Example 89, 4-[3-(8-chloro-3-methylquinolin-4-yl)-2-methyl-7-(4H-1,2,4-triazol-3-yl)benzimidazol-5-yl]-3-fluoropyridin-2-amine]", "values": [
      {"measurement": "IC50", "value": 3, "unit": "nM"}
    ]},
    {"smiles": "Cc1cc(-c2cc(-c3nnc[nH]3)c3nc(C)n(-c4ccnc5c(F)ccc(F)c45)c3c2)cc(N)n1", "note": "[Example 90, 4-[3-(5,8-difluoroquinolin-4-yl)-2-methyl-7-(4H-1,2,4-triazol-3-yl)benzimidazol-5-yl]-6-methylpyridin-2-amine]", "values": [
      {"measurement": "IC50", "value": 340, "unit": "nM"}
    ]},
    {"smiles": "Cc1nc2c(-c3nnc[nH]3)cc(-c3ccnc(N)c3Cl)cc2n1-c1ccnc2c(F)ccc(F)c12", "note": "[Example 91, 3-chloro-4-[3-(5,8-difluoroquinolin-4-yl)-2-methyl-7-(4H-1,2,4-triazol-3-yl)benzimidazol-5-yl]pyridin-2-amine]", "values": [
      {"measurement": "IC50", "value": 19, "unit": "nM"}
    ]},
    {"smiles": "Cc1nc2c(-c3nnc[nH]3)cc(-c3ccnc(N)c3F)cc2n1-c1c(Cl)cnc2c(F)cccc12", "note": "[Example 92, 4-[3-(3-chloro-8-fluoroquinolin-4-yl)-2-methyl-7-(4H-1,2,4-triazol-3-yl)benzimidazol-5-yl]-3-fluoropyridin-2-amine]", "values": [
      {"measurement": "IC50", "value": 51, "unit": "nM"}
    ]},
    {"smiles": "Cc1nc2c(-c3nnc[nH]3)cc(-c3ccnc(N)c3F)cc2n1-c1ccnc2cccc(F)c12", "note": "[Example 93, 3-fluoro-4-[3-(5-fluoroquinolin-4-yl)-2-methyl-7-(4H-1,2,4-triazol-3-yl)benzimidazol-5-yl]pyridin-2-amine]", "values": [
      {"measurement": "IC50", "value": 5, "unit": "nM"}
    ]},
    {"smiles": "CCc1nc2c(-c3nnc[nH]3)cc(-c3ccnc(N)c3F)cc2n1-c1ccnc2cccc(F)c12", "note": "[Example 94, 4-[2-ethyl-3-(5-fluoroquinolin-4-yl)-7-(4H-1,2,4-triazol-3-yl)benzimidazol-5-yl]-3-fluoropyridin-2-amine]", "values": [
      {"measurement": "IC50", "value": 8, "unit": "nM"}
    ]},
    {"smiles": "CCc1nc2c(-c3nnc[nH]3)cc(-c3ccnc(N)c3F)cc2n1-c1ccnc2c(F)ccc(F)c12", "note": "[Example 95, 4-[3-(5,8-difluoroquinolin-4-yl)-2-ethyl-7-(4H-1,2,4-triazol-3-yl)benzimidazol-5-yl]-3-fluoropyridin-2-amine]", "values": [
      {"measurement": "IC50", "value": 5, "unit": "nM"}
    ]},
    {"smiles": "Nc1nccc(-c2cc(-c3nnc[nH]3)c3nc(CC4CC4)n(-c4ccnc5c(F)ccc(F)c45)c3c2)c1F", "note": "[Example 96, 4-[2-(cyclopropylmethyl)-3-(5,8-difluoroquinolin-4-yl)-7-(4H-1,2,4-triazol-3-yl)benzimidazol-5-yl]-3-fluoropyridin-2-amine]", "values": [
      {"measurement": "IC50", "value": 7, "unit": "nM"}
    ]},
    {"smiles": "Cc1nnc(-c2cc(-c3ccnc(N)c3F)cc3c2nc(C)n3-c2ccnc3c(F)ccc(F)c23)[nH]1", "note": "[Example 97, 4-[3-(5,8-difluoroquinolin-4-yl)-2-methyl-7-(5-methyl-4H-1,2,4-triazol-3-yl)benzimidazol-5-yl-]3-fluoropyridin-2-amine]", "values": [
      {"measurement": "IC50", "value": 31, "unit": "nM"}
    ]},
    {"smiles": "Cc1nnc(-c2cc(-c3ccnc(N)c3F)cc3c2nc(C)n3-c2ccnc3c(Cl)ccc(F)c23)[nH]1", "note": "[Example 98, 4-[3-(8-chloro-5-fluoroquinolin-4-yl)-2-methyl-7-(5-methyl-4H-1,2,4-triazol-3-yl)benzimidazol-5-yl]-3-fluoropyridin-2-amine]", "values": [
      {"measurement": "IC50", "value": 6, "unit": "nM"}
    ]},
    {"smiles": "Cc1nc2c(-c3nnc[nH]3)cc(-c3ccnc(N)c3F)cc2n1-c1ccnc2c(F)ccc(Cl)c12", "note": "[Example 99, 4-[3-(5-chloro-8-fluoroquinolin-4-yl)-2-methyl-7-(4H-1,2,4-triazol-3-yl)benzimidazol-5-yl]-3-fluoropyridin-2-amine]", "values": [
      {"measurement": "IC50", "value": 29, "unit": "nM"}
    ]},
    {"smiles": "Cc1nc2c(-c3nnc[nH]3)cc(-c3c(F)cnc(N)c3F)cc2n1-c1ccnc2c(F)ccc(F)c12", "note": "[Example 100, 4-[3-(5,8-difluoroquinolin-4-yl)-2-methyl-7-(4H-1,2,4-triazol-3-yl)benzimidazol-5-yl]-3,5-difluoropyridin-2-amine]", "values": [
      {"measurement": "IC50", "value": 320, "unit": "nM"}
    ]},
    {"smiles": "Cc1c(-c2cc(-c3nnc[nH]3)c3nc(C)n(-c4ccnc5c(F)ccc(F)c45)c3c2)ccnc1N", "note": "[Example 101, 4-[3-(5,8-difluoroquinolin-4-yl)-2-methyl-7-(4H-1,2,4-triazol-3-yl)benzimidazol-5-yl]-3-methylpyridin-2-amine]", "values": [
      {"measurement": "IC50", "value": 2800, "unit": "nM"}
    ]},
    {"smiles": "Nc1nccc(-c2cc(-c3nnc[nH]3)c3ncn(-c4ccnc5c(F)ccc(F)c45)c3c2)c1F", "note": "[Example 102, 4-[3-(5,8-difluoroquinolin-4-yl)-7-(4H-1,2,4-triazol-3-yl)benzimidazol-5-yl]-3-fluoropyridin-2-amine]", "values": [
      {"measurement": "IC50", "value": 11, "unit": "nM"}
    ]},
    {"smiles": "Cc1nc2c(-c3nnc[nH]3)cc(-c3ccnc(C#N)c3)cc2n1-c1ccnc2cc(F)cc(F)c12", "note": "[Example 143, 4-(1-(5,7-difluoroquinolin-4-yl)-2-methyl-4-(4H-1,2,4-triazol-3-yl)-1H-benzo[d]imidazol-6-yl)picolinonitrile]", "values": [
      {"measurement": "IC50", "value": 6, "unit": "nM"}
    ]},
    {"smiles": "Cc1nc2c(-c3nnc[nH]3)cc(-c3ccnc(C#N)c3)cc2n1-c1ccnc2c(F)ccc(Cl)c12", "note": "[Example 144, 4-(1-(5-chloro-8-fluoroquinolin-4-yl)-2-methyl-4-(4H-1,2,4-triazol-3-yl)-1H-benzo[d]imidazol-6-yl)picolinonitrile]", "values": [
      {"measurement": "IC50", "value": 18, "unit": "nM"}
    ]},
    {"smiles": "Cc1nc2c(-c3nnc[nH]3)cc(-c3ccnc(C#N)c3)cc2n1-c1ccnc2c(Cl)ccc(Cl)c12", "note": "[Example 145, 4-(1-(5,8-dichloroquinolin-4-yl)-2-methyl-4-(4H-1,2,4-triazol-3-yl)-1H-benzo[d]imidazol-6-yl)picolinonitrile]", "values": [
      {"measurement": "IC50", "value": 2, "unit": "nM"}
    ]},
    {"smiles": "Cc1nc2c(-c3nnc[nH]3)cc(-c3ccnc(C#N)c3)cc2n1-c1ccnc2cccc(Cl)c12", "note": "[Example 146, 4-(1-(5-chloroquinolin-4-yl)-2-methyl-4-(4H-1,2,4-triazol-3-yl)-1H-benzo[d]imidazol-6-yl)picolinonitrile]", "values": [
      {"measurement": "IC50", "value": 200, "unit": "nM"}
    ]},
    {"smiles": "Cc1nc2c(-c3nnc[nH]3)cc(-c3ccnc(C#N)c3)cc2n1-c1ccnc2cccc(F)c12", "note": "[Example 147, 4-(1-(5-fluoroquinolin-4-yl)-2-methyl-4-(4H-1,2,4-triazol-3-yl)-1H-benzo[d]imidazol-6-yl)picolinonitrile]", "values": [
      {"measurement": "IC50", "value": 4, "unit": "nM"}
    ]},
    {"smiles": "Cc1nc2c(-c3nnc[nH]3)cc(-c3ccnc(C#N)c3)cc2n1-c1ccnc2c(F)cccc12", "note": "[Example 148, 4-(1-(8-fluoroquinolin-4-yl)-2-methyl-4-(4H-1,2,4-triazol-3-yl)-1H-benzo[d]imidazol-6-yl)picolinonitrile]", "values": [
      {"measurement": "IC50", "value": 16, "unit": "nM"}
    ]},
    {"smiles": "Cc1nc2c(-c3nnc[nH]3)cc(-c3ccnc(C#N)c3)cc2n1-c1ccnc2c(Cl)cccc12", "note": "[Example 149, 4-(1-(8-chloroquinolin-4-yl)-2-methyl-4-(4H-1,2,4-triazol-3-yl)-1H-benzo[d]imidazol-6-yl)picolinonitrile]", "values": [
      {"measurement": "IC50", "value": 4, "unit": "nM"}
    ]},
    {"smiles": "Cc1nnc(-c2cc(-c3ccnc(C#N)c3)cc3c2nc(C)n3-c2ccnc3c(Cl)ccc(F)c23)[nH]1", "note": "[Example 150, 4-(1-(8-chloro-5-fluoroquinolin-4-yl)-2-methyl-4-(5-methyl-4H-1,2,4-triazol-3-yl)-1H-benzo[d]imidazol-6-yl)picolinonitrile]", "values": [
      {"measurement": "IC50", "value": 13, "unit": "nM"}
    ]},
    {"smiles": "Cc1nnc(-c2cc(-c3ccnc(C#N)c3)cc3c2nc(C)n3-c2ccnc3c(F)ccc(F)c23)[nH]1", "note": "[Example 151, 4-(1-(5,8-difluoroquinolin-4-yl)-2-methyl-4-(5-methyl-4H-1,2,4-triazol-3-yl)-1H-benzo[d]imidazol-6-yl)picolinonitrile]", "values": [
      {"measurement": "IC50", "value": 80, "unit": "nM"}
    ]},
    {"smiles": "Cc1nc2c(-c3nnc[nH]3)cc(-c3ccnc(C#N)n3)cc2n1-c1ccnc2c(F)ccc(F)c12", "note": "[Example 152, 4-(1-(5,8-difluoroquinolin-4-yl)-2-methyl-4-(4H-1,2,4-triazol-3-yl)-1H-benzo[d]imidazol-6-yl)pyrimidine-2-carbonitrile]", "values": [
      {"measurement": "IC50", "value": 10, "unit": "nM"}
    ]},
    {"smiles": "Cc1nc2c(-c3nnc[nH]3)cc(-c3ccnc(C#N)c3)cc2n1-c1ccnc2c(Cl)ccc(F)c12", "note": "[Example 153, 4-(1-(8-chloro-5-fluoroquinolin-4-yl)-2-methyl-4-(4H-1,2,4-triazol-3-yl)-1H-benzo[d]imidazol-6-yl)picolinonitrile]", "values": [
      {"measurement": "IC50", "value": 7, "unit": "nM"}
    ]},
    {"smiles": "COc1nccc(-c2cc(-c3nnc[nH]3)c3nc(C)n(-c4ccnc5c(F)ccc(F)c45)c3c2)n1", "note": "[Example 154, 5,8-difluoro-4-(6-(2-methoxypyrimidin-4-yl)-2-methyl-4-(4H-1,2,4-triazol-3-yl)-1H-benzo[d]imidazol-1-yl)quinoline]", "values": [
      {"measurement": "IC50", "value": 9, "unit": "nM"}
    ]},
    {"smiles": "Cc1cc(-c2cc(-c3nnc[nH]3)c3nc(C)n(-c4ccnc5c(F)ccc(F)c45)c3c2)ncn1", "note": "[Example 155, 5,8-difluoro-4-(2-methyl-6-(6-methylpyrimidin-4-yl)-4-(4H-1,2,4-triazol-3-yl)-1H-benzo[d]imidazol-1-yl)quinoline]", "values": [
      {"measurement": "IC50", "value": 62, "unit": "nM"}
    ]},
    {"smiles": "Cc1nccc(-c2cc(-c3nnc[nH]3)c3nc(C)n(-c4ccnc5c(F)ccc(F)c45)c3c2)n1", "note": "[Example 156, 5,8-difluoro-4-(2-methyl-6-(2-methylpyrimidin-4-yl)-4-(4H-1,2,4-triazol-3-yl)-1H-benzo[d]imidazol-1-yl)quinoline]", "values": [
      {"measurement": "IC50", "value": 12, "unit": "nM"}
    ]},
    {"smiles": "Cc1nc2c(C(N)=O)cc(-c3ncnc(N)c3C#N)cc2n1-c1ccnc2c(F)ccc(F)c12", "note": "[Example 157, 6-(6-amino-5-cyanopyrimidin-4-yl)-1-(5,8-difluoroquinolin-4-yl)-2-methyl-1H-benzo[d]imidazole-4-carboxamide]", "values": [
      {"measurement": "IC50", "value": 460, "unit": "nM"}
    ]},
    {"smiles": "Cc1nc2c(-c3nnc[nH]3)cc(-c3ccnc(Cl)c3)cc2n1-c1ccnc2c(F)ccc(F)c12", "note": "[Example 158, 4-(6-(2-chloropyridin-4-yl)-2-methyl-4-(4H-1,2,4-triazol-3-yl)-1H-benzo[d]imidazol-1-yl)-5,8-difluoroquinoline]", "values": [
      {"measurement": "IC50", "value": 7, "unit": "nM"}
    ]}
  ]
}
